These results are taken from ChEMBL document CHEMBL4680341, “Substituted diaryl ether compounds as retinoic acid-related orphan Receptor-γt (RORγt) agonists” (Bioorg Med Chem Lett, 2021).

Usually fraction remaining stands for the share of the starting amount still present when the sample was taken.

A short description of data set [1]: in vitro. The following applies: human, liver microsomes.
Description: Stability in human liver microsomes assessed as parent compound remaining at 3 uM after 10 mins by mass spectrometric method
The nature of data set [2]: in vitro. The settings on record: rat, liver microsomes. For orientation: Microsomes from liver hold many membrane-bound enzymes, among them those of drug oxidation.
Description: Stability in rat liver microsomes assessed as parent compound remaining at 3 uM after 10 mins by mass spectrometric method
Data set [3] can be described thus: in vitro. The settings on record: mouse, liver microsomes.
Description: Stability in mouse liver microsomes assessed as parent compound remaining at 3 uM after 10 mins by mass spectrometric method

`CC(C)c1cc(F)cc(Oc2c(Cl)cc(NC(=O)Cc3cccnc3)cc2Cl)c1`: the figures for the fraction remaining at 10 min, 3 µM in the data set “in vitro [1]”, in the data set “in vitro [2]” and in “in vitro [3]” were 79%, 78% and 81%, respectively.
